# Test results as given in US20150086646A1, “ANESTHETIC NEUTRALIZATION METHODS” (Instigo Biotech Ltd., priority 2012, published 2015).
# Test system: Male rats (SD Rat)
# Test: Paw thermal sensitivity (Plantar test) in rats after regional anesthesia of the sciatic and saphenous nerves
# Assay type: in vivo
# Conditions: for response time relative to group 2 (anesthetic + buffer) / response time (average time before lifting the treated limb): 150 microliters at each locus; for elimination of effects of regional anesthesia (overall conclusion of the model): rat model, lidocaine HCl 2%/epinephrine 1:100,000 nerve block; for response time (average time before lifting the treated limb): 7 min after lidocaine HCl 2%/epinephrine 1:100,000, 5 minutes after administration, anesthetic + buffer group 20-35 seconds, no-anesthetic control 4-6 seconds
# Protocol: An animal model was performed to test ROS/RNS dosages and effects on sensory anesthesia following administration of regional anesthesia, as follows. Male rats (SD Rat) weighing between 300-350 grams, were supplied by Harlan, Israel, and were randomly assigned to experimental groups. Rats were provided with sterile rodent diet with free access to drinking water. In the animal model, a testing chamber (Plantar test 3730 apparatus, made by Ugo Basile) was used in which the rats were placed on a surface which is heated and increases heat gradually. A measurement of time from placement of the rat's hind limb on the hot surface to lifting the hind limb was recorded. […] All rats were habituated to the testing facilities for five days before the model, and then introduced into the testing chamber two days prior to the testing of regional anesthesia in order to habituate rats to the apparatus. One day prior to regional anesthetic administration, baseline body weight measurements and baseline paw thermal sensitivity were recorded. Rats were randomly divided into 7 groups having 4 rats in each group. Group 1 was not administered anesthesia, but was administered saline solution as a vehicle at the time of regional anesthetic administration to groups 2-7. Groups 2 through 7 were administered lidocaine HCl 2%/epinephrine 1:100,000 ready to use solution (hereinafter, “anesthetic,”) 7 minutes before administering test items. Regional anesthetic was injected around the sciatic and saphenous nerves at a volume of 150 microliters at each site of the rat's left hind limb. Injection around the saphenous nerve was performed via local injection to/next to the adductor canal which runs on the medial aspect of the thigh between the vastus medialis and the sartorius muscles, about 2-3 cm below the inguinal canal. Injection around the sciatic nerve was performed via local injection to the sciatic notch, positioned 1 mm from the femoral shaft between the greater trochanter and ischial tuberosity pointing toward the ischium. Five minutes after injection of regional anesthetic, an assessment of the nerve blocks was performed by pinching the rat's paw to determine if the regional anesthetics were properly administered. Seven minutes after regional anesthetic administration, test agents were administered to the same loci, in a volume of 150 microliters at each locus. Groups 1 and 2 were administered a vehicle buffer as test agents. Group 3 was administered 0.1 mM hydrogen peroxide, formulated in saline solution. […] PON which was administered to rats was prepared by commercially available sodium peroxynitrite in NaCl and NaOH each at a concentration of 0.3 molar, available from Cayman Chemical. The commercially available PON was diluted to the desired concentrations for injection, by forming a suspension in 0.3M NaCl, 0.1M glycine having a pH of 10.5. All rats were tested for paw thermal sensitivity at 5, 10, 15, 20, 60 and 120 minutes after administration of the test items using the testing chamber. The results of average time before lifting the treated limb in each rat for each time point was calculated and is depicted in FIG. 2.
Structure (SMILES),"response time relative to group 2 (anesthetic + buffer) (group 3: 0.1 mM hydrogen peroxide in saline, 5, 10 and 15 minute time points)","statistical significance of the effect on response time (group 3: 0.1 mM hydrogen peroxide, 4 rats per group)",elimination of effects of regional anesthesia (overall conclusion of the model),response time (average time before lifting the treated limb) (group 4: PON 40 mM) [s],response time (average time before lifting the treated limb) (group 5: PON 10 mM) [s],"response time relative to group 2 (anesthetic + buffer) (group 6: PON 1 mM, 5 and 10 minute time points)"
"OO [H2O2, hydrogen peroxide]",decreased response time,not statistically significant,effective in quickly eliminating effects of regional anesthesia,,,
"O=NOO [PON, sodium peroxynitrite]",,,effective in quickly eliminating effects of regional anesthesia,4 to 6,4 to 6,improved response time
